# Experimental data published in patent US10076519B2 (CYTOKINETICS, INC., priority 2010, dated 2018).
# System: rabbit skeletal myofibrils (fast skeletal myofibrils)
# Test: Activation of fast skeletal myofibrils (PUMA assay, PK/LDH-coupled ATPase at pCa25)
# Type: biochemical
# Settings: AC1.4 determined according to the procedure of Example 39; reported as class symbols
# Procedure, shortened: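 ATPase activity of Triton-washed rabbit skeletal myofibrils, roughly 90% fast fibres, tracked by NADH loss at 340 nm through a PK/LDH-coupled ADP-regenerating system. Calcium set to 25% of maximal activity (pCa25), in PIPES 12 mM pH 6.8 with 2 mM MgCl2 and 1 mM DTT; AC1.4 reported.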
row,Mean AC1.4,Structure (SMILES)
1,D (D=>20 uM),"CC(C)(CNc1ccc(C(=O)NC(CCC(N)=O)C(N)=O)nn1)c1ccc(F)cc1 (stereo not drawn) [N-(1,3-dicarbamoylpropyl)(6-{[2-(4-fluorophenyl)-2-methylpropyl]amino}pyridazin-3-yl)carboxamide]"
2,C (C=10-20 uM),CC(C)CC(NC(=O)c1ccc(NCC(C)(C)c2ccc(F)cc2)nn1)C(N)=O (stereo not drawn) [N-(1-carbamoyl-3-methylbutyl)(6-{[2-(4-fluorophenyl)-2-methylpropyl]amino}pyridazin-3-yl)carboxamide]
3,B (B=1-10 uM),"CC(C)(CNc1ccc(-c2cccc(C(=O)NCC(O)CO)c2)nn1)c1ccc(F)cc1 (stereo not drawn) [N-(2,3-dihydroxypropyl)[3-(6-{[2-(4-fluorophenyl)-2-methylpropyl]amino}pyridazin-3-yl)phenyl]carboxamide]"
4,B (B=1-10 uM),C=Cc1ccc(NCC(C)(C)c2ccc(F)cc2)nn1 [N-(2-(4-fluorophenyl)-2-methylpropyl)-6-vinylpyridazin-3-amine]
5,A (A=<1 uM),CC(C)(CNc1ccc(-c2cccc(C(=O)NCCN)c2)nn1)c1ccc(F)cc1 [N-(2-aminoethyl)[3-(6-{[2-(4-fluorophenyl)-2-methylpropyl]amino}pyridazin-3-yl)phenyl]carboxamide]
6,D (D=>20 uM),CC(C)(CNc1ccc(C(=O)NCCC(N)=O)nn1)c1ccc(F)cc1 [N-(2-carbamoylethyl)(6-{[2-(4-fluorophenyl)-2-methylpropyl]amino}pyridazin-3-yl)carboxamide]
7,B (B=1-10 uM),CC(C)(CNc1ccc(-c2cccc(C(=O)NCCCN)c2)nn1)c1ccc(F)cc1 [N-(3-aminopropyl)[3-(6-{[2-(4-fluorophenyl)-2-methylpropyl]amino}pyridazin-3-yl)phenyl]carboxamide]
8,C (C=10-20 uM),CC(C)(CNc1ccc(C(=O)N[C@H](Cc2ccccc2)C(N)=O)nn1)c1ccc(F)cc1 [N-((1R)-1-carbamoyl-2-phenylethyl)(6-{[2-(4-fluorophenyl)-2-methylpropyl]amino}pyridazin-3-yl)carboxamide]
9,D (D=>20 uM),CC(C)(CNc1ccc(C(=O)N[C@@H](CO)C(N)=O)nn1)c1ccc(F)cc1 [N-((1S)-1-carbamoyl-2-hydroxyethyl)(6-{[2-(4-fluorophenyl)-2-methylpropyl]amino}pyridazin-3-yl)carboxamide]
10,C (C=10-20 uM),CC(C)(CNc1ccc(C(=O)N[C@@H](Cc2ccccc2)C(N)=O)nn1)c1ccc(F)cc1 [N-((1S)-1-carbamoyl-2-phenylethyl)(6-{[2-(4-fluorophenyl)-2-methylpropyl]amino}pyridazin-3-yl)carboxamide]

# Same assay, conditions: median AC1.4 class, procedure of Example 39
row,Structure (SMILES),Mean AC1.4
1,"O=C(NC1CCS(=O)(=O)C1)c1cnc(-c2ccc(NCC3(c4ncccc4F)CCC3)nn2)s1 (stereo not drawn) [N-(1,1-dioxothiolan-3-yl){2-[6-({[(3-fluoro(2-pyridyl))cyclobutyl]methyl}ami-no)pyridazin-3-yl](1,3-thiazol-5-yl)}carboxamide]",A (A=<1 uM)
2,"NCCNC(=O)c1cnc(-c2ccc(NCC3(c4ncccc4F)CCC3)nn2)s1 [N-(2-aminoethyl){2-[6-({[(3-fluoro(2-pyridyl))cyclobutyl]methyl}ami-no)pyridazin-3-yl](1,3-thiazol-5-yl)}carboxamide]",A (A=<1 uM)
3,"O=C(NC[C@@H](O)CO)c1cnc(-c2ccc(NCC3(c4ncccc4F)CCC3)nn2)s1 [N-((2R)-2,3-dihydroxypropyl){2-[6-({[(3-fluoro(2-pyridyl))cyclobutyl]methyl}ami-no)pyridazin-3-yl](1,3-thiazol-5-yl)}carboxamide]",B (B=1-10 uM)
4,"O=C(NC[C@H](O)CO)c1cnc(-c2ccc(NCC3(c4ncccc4F)CCC3)nn2)s1 [N-((2S)-2,3-dihydroxypropyl){2-[6-({[(3-fluoro(2-pyridyl))cyclobutyl]methyl}ami-no)pyridazin-3-yl](1,3-thiazol-5-yl)}carboxamide]",A (A=<1 uM)
5,"O=C(NC[C@H](O)CO)c1ccc(F)c(-c2ccc(NC[C@]3(c4ncccc4F)C[C@H](F)C3)nn2)c1 [N-((2S)-2,3-dihydroxypropyl){4-fluoro-3-[6-({[3-fluoro-1-(3-fluoro(2-pyridyl))cyclobutyl]methyl}ami-no)pyridazin-3-yl]phenyl}carboxamide]",A (A=<1 uM)

# Next, values leading:
row,Mean AC1.4,Structure (SMILES)
1,A (A=<1 uM),"O=C(NCC(F)(F)CO)c1cnc(-c2ccc(NCC3(c4ncccc4F)CCC3)nn2)s1 [N-(2,2-difluoro-3-hydroxypropyl){2-[6-({[(3-fluoro(2-pyridyl))cyclobutyl]methyl}ami-no)pyridazin-3-yl](1,3-thiazol-5-yl)}carboxamide]"
2,A (A=<1 uM),"O=C(NCC(O)CO)c1cnc(-c2ccc(NCC3(c4ncccc4F)CCC3)nn2)s1 (stereo not drawn) [N-(2,3-dihydroxypropyl){2-[6-({[(3-fluoro(2-pyridyl))cyclobutyl]methyl}ami-no)pyridazin-3-yl](1,3-thiazol-5-yl)}carboxamide]"
3,B (B=1-10 uM),"NC(CNC(=O)c1cnc(-c2ccc(NCC3(c4ncccc4F)CCC3)nn2)s1)C(F)(F)F (stereo not drawn) [N-(2-amino-3,3,3-trifluoropropyl){2-[6-({[(3-fluoro(2-pyridyl))cyclobutyl]methyl}ami-no)pyridazin-3-yl](1,3-thiazol-5-yl)}carboxamide]"
4,A (A=<1 uM),"NCC(F)(F)CNC(=O)c1cnc(-c2ccc(NCC3(c4ncccc4F)CCC3)nn2)s1 [N-(3-amino-2,2-difluoropropyl){2-[6-({[(3-fluoro(2-pyridyl))cyclobutyl]methyl}ami-no)pyridazin-3-yl](1,3-thiazol-5-yl)}carboxamide]"
5,B (B=1-10 uM),CC(C)(C)[S+]([O-])NCc1cnc(-c2ccc(NCC3(c4ncccc4F)CCC3)nn2)s1 (stereo not drawn) [N-((2-(6-((1-(3-fluoropyridin-2-yl)cyclobutyl)methylamino)pyr-idazin-3-yl)thiazol-5-yl)methyl)-2-methylpropane-2-sulfinamide]
6,A (A=<1 uM),"O=C(NC[C@@H](O)CO)c1ccc(F)c(-c2ccc(NC[C@]3(c4ncccc4F)C[C@H](F)C3)nn2)c1 [N-((2R)-2,3-dihydroxypropyl){4-fluoro-3-[6-({[3-fluoro-1-(3-fluoro(2-pyridyl))cyclobutyl]methyl}ami-no)pyridazin-3-yl]phenyl}carboxamide]"

# Same assay, conditions: median AC1.4 reported as class; procedure of Example 39
row,Structure (SMILES),Mean AC1.4
1,CC(=O)N1CC(NC(=O)c2cccc(-c3ccc(NC[C@]4(c5ncccc5F)C[C@H](F)C4)nn3)c2)C1 [N-(1-acetylazetidin-3-yl){3-[6-({[3-fluoro-1-(3-fluoro(2-pyridyl))cyclobutyl]methyl}ami-no)pyridazin-3-yl]phenyl}carboxamide],B (B=1-10 uM)
2,CC(=O)N1CC(NC(=O)c2ccc(F)c(-c3ccc(NC[C@]4(c5ncccc5F)C[C@H](F)C4)nn3)c2)C1 [N-(1-acetylazetidin-3-yl){4-fluoro-3-[6-({[3-fluoro-1-(3-fluoro(2-pyridyl))cyclobutyl]methyl}ami-no)pyridazin-3-yl]phenyl}carboxamide],A (A=<1 uM)
3,"O=C(Nc1nnc[nH]1)c1ccc(NCC2(c3ncccc3F)CCC2)nn1 [N-(1H-1,2,4-triazol-5-yl)[6-({[(3-fluoro(2-pyridyl))cyclobutyl]methyl}ami-no)pyridazin-3-yl]carboxamide]",D (D=>20 uM)
4,"O=C(NCC(F)F)c1ccc(F)c(-c2ccc(NC[C@]3(c4ncccc4F)C[C@H](F)C3)nn2)c1 [N-(2,2-difluoroethyl){4-fluoro-3-[6-({[3-fluoro-1-(3-fluoro(2-pyridyl))cyclobutyl]methyl}ami-no)pyridazin-3-yl]phenyl}carboxamide]",B (B=1-10 uM)
5,O=C(NCCF)c1ccc(F)c(-c2ccc(NC[C@]3(c4ncccc4F)C[C@H](F)C3)nn2)c1 [N-(2-fluoroethyl){4-fluoro-3-[6-({[3-fluoro-1-(3-fluoro(2-pyridyl))cyclobutyl]methyl}ami-no)pyridazin-3-yl]phenyl}carboxamide],B (B=1-10 uM)
6,O=C(N[C@@H]1CCNC1=O)c1ccc(NCC2(c3ncccc3F)CCC2)nn1 [N-((3R)-2-oxopyrrolidin-3-yl)[6-({[(3-fluoro(2-pyridyl))cyclobutyl]methyl}ami-no)pyridazin-3-yl]carboxamide],D (D=>20 uM)

# Second part, the compound after the results:
row,Mean AC1.4,Structure (SMILES)
1,B (B=1-10 uM),"O=C(NC1CS(=O)(=O)C1)c1cccc(-c2ccc(NC[C@]3(c4ncccc4F)C[C@H](F)C3)nn2)c1 [N-(1,1-dioxothietan-3-yl){3-[6-({[3-fluoro-1-(3-fluoro(2-pyridyl))cyclobutyl]methyl}ami-no)pyridazin-3-yl]phenyl}carboxamide]"
2,B (B=1-10 uM),"O=C(NC1CCS(=O)(=O)C1)c1cccc(-c2ccc(NC[C@]3(c4ncccc4F)C[C@H](F)C3)nn2)c1 (stereo partly drawn) [N-(1,1-dioxothiolan-3-yl){3-[6-({[3-fluoro-1-(3-fluoro(2-pyridyl))cyclobutyl]methyl}ami-no)pyridazin-3-yl]phenyl}carboxamide]"
3,B (B=1-10 uM),"O=C(NC1CCOCC1)c1cccc(-c2ccc(NC[C@]3(c4ncccc4F)C[C@H](F)C3)nn2)c1 [N-(2H-3,4,5,6-tetrahydropyran-4-yl){3-[6-({[3-fluoro-1-(3-fluoro(2-pyridyl))cyclobutyl]methyl}ami-no)pyridazin-3-yl]phenyl}carboxamide]"
4,A (A=<1 uM),"O=C(NC1CC(F)(F)C1)c1ccc(F)c(-c2ccc(NC[C@]3(c4ncccc4F)C[C@H](F)C3)nn2)c1 [N-(3,3-difluorocyclobutyl){4-fluoro-3-[6-({[3-fluoro-1-(3-fluoro(2-pyridyl))cyclobutyl]methyl}ami-no)pyridazin-3-yl]phenyl}carboxamide]"
5,C (C=10-20 uM),N#Cc1nc[nH]c1NC(=O)c1ccc(NCC2(c3ncccc3F)CCC2)nn1 [N-(4-cyanoimidazol-5-yl)[6-({[(3-fluoro(2-pyridyl))cyclobutyl]methyl}ami-no)pyridazin-3-yl]carboxamide]
6,B (B=1-10 uM),N#Cc1cn[nH]c1NC(=O)c1ccc(NCC2(c3ncccc3F)CCC2)nn1 [N-(4-cyanopyrazol-5-yl)[6-({[(3-fluoro(2-pyridyl))cyclobutyl]methyl}ami-no)pyridazin-3-yl]carboxamide]
